The results in this text go back to patent US7932262B2 (Novartis AG, priority 2006, dated 2011).

Molecules are shown by their SMILES. Like-named read-outs stand apart in the source and are kept apart here.

One assay has as its system A2780 cells. Description: Cell Proliferation Assay (Cell Titer Glo), A2780. In kind it is cell-based. Conditions: Homo sapiens, read-out: CPEC50 A2780. The method, then:
IV. Cell Proliferation Assay Protocol:
A2780, PC-3, or PC3MM cells were seeded at 1000 cells/well in 100 μL/well (10.000 cells/mL) growth media in 96-well plates. Cells were allowed to adhere to the bottom of plates for 3-5 hours in a 37° C. 5% CO2 incubator. Compounds were dissolved in DMSO and then transferred to the cell plates. The cells were incubated with the compounds for 3 days in a 37° C. 5% CO2 incubator. The growth medium containing the compounds was then removed from the cells and fresh medium was added, followed by 100 μL of Cell Titer Glo assay reagent (Promega). This mixture was shaken for 1 minute and then incubated without shaking for 10 minutes. Activity determinations for the compounds were made by detection on a Trilux Instrument.
A general note: Cellular ATP, detected with luciferase, serves as a proxy for viable cell number.

In the next assay the target is T1, PDK1 kinase (Homo sapiens, UniProt O15530).
T1 sequence (O15530 1-556): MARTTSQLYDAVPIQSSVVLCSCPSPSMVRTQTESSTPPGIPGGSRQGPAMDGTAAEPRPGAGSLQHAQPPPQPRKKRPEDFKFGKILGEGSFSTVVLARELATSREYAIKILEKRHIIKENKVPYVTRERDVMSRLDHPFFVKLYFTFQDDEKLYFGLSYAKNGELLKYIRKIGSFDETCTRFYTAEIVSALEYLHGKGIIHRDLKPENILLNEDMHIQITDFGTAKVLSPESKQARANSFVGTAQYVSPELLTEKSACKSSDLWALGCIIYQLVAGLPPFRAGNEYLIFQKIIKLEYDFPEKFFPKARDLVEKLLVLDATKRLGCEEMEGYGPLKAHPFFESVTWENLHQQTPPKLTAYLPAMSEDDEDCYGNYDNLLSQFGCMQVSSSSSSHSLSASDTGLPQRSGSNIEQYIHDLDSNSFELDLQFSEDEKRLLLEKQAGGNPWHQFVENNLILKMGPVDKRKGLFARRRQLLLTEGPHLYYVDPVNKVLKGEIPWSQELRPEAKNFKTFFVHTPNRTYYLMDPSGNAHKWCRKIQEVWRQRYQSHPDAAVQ
Description: PDK1 Kinase Alpha Screen Assay. In kind it is biochemical. Conditions: head of the second part of Table 4: BV11261; read-out: PDK1 BV11261. The essentials: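 Compound in DMSO added to PDK1-4 peptide; PDK1/ATP mix starts reaction (final 50 nM peptide, 10 uM ATP). Runs 3-18 hours, stopped with 90 mM EDTA buffer. Antibody/bead mix added, developed overnight at room temperature, then AlphaScreen signal read.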

In a further assay the test system is PC-3 cells. Nature of the assay: Cell Proliferation Assay (Cell Titer Glo), PC-3 cell line. The class given is cell-based. Conditions: Homo sapiens, PC-3, PC3 cells; read-out: CPEC50 PC3. A digest of the protocol:
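PC-3 cells, 1000 cells/well, left to adhere 3-5 h, then exposed for 3 days at 37° C to compounds as 1:3 serial dilutions from 500× DMSO stocks diluted in growth medium. Medium then replaced with fresh medium and viability read by Cell Titer Glo luminescence.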

Where [1] appears, read: Cell Proliferation Assay, A2780.
Setting [2] is: cell proliferation, A2780 cells.

For the compound `COc1ncccc1-c1ccc2cnc(Nc3ccc(S(N)(=O)=O)cc3)nc2c1` [Compound 314, 4-(7-(2-methoxypyridin-3-yl)quinazolin-2-ylamino)benzenesulfonamide], the EC50 in the assay on A2780 cells (setting [1]) lay in the range of 5 to 10 µM.

With `Cn1cc(-c2ccc3cnc(Nc4ccc(S(=O)(=O)N5CCOCC5)cc4)nc3c2)cn1` [Compound 317, 7-(1-methyl-1H-pyrazol-4-yl)-N-(4-(morpholinosulfonyl)phenyl)quinazolin-2-amine], the EC50 with A2780 cells (setting [1]) is less than 5 µM.

`NS(=O)(=O)c1ccc(Nc2ncc3cccc(C(=O)NCc4ccccn4)c3n2)cc1` [Compound 419, N-(pyridin-2-ylmethyl)-2-(4-sulfamoylphenylamino)quinazoline-8-carboxamide]: in the assay on A2780 cells (setting [1]), the EC50 lay within 5 to 10 µM.

`CC(C)(C)OC(=O)N1CCC(Oc2c(Br)ccc3cnc(Nc4ccc(S(N)(=O)=O)cc4)nc23)CC1` [Compound 420, tert-butyl 4-(7-bromo-2-(4-sulfamoylphenylamino)quinazolin-8-yloxy)piperidine-1-carboxylate]: the EC50 in the assay with A2780 cells (setting [1]) is less than 5 µM.

For `CC(C)Oc1cccc2cnc(Nc3cccnc3)nc12` [Compound 522, 8-isopropoxy-N-(pyridin-3-yl)quinazolin-2-amine], in the assay on A2780 cells (setting [1]), the EC50 lay within 5 to 10 µM.

For the compound `CC(C)Oc1cccc2cnc(NC3CCN(C)CC3)nc12` [Compound 557, 8-isopropoxy-N-(1-methylpiperidin-4-yl)quinazolin-2-amine], the EC50 with A2780 cells (setting [1]) lay in the range of 5 to 10 µM.

`CC(C)Oc1cccc2cnc(NCc3ccc(S(N)(=O)=O)cc3)nc12` [Compound 558, 4-((8-isopropoxyquinazolin-2-ylamino)methyl)benzenesulfonamide]: in the assay with A2780 cells (setting [1]), the EC50 lay within 5 to 10 µM.

Take `COc1cc(-c2ccc3cnc(Nc4ccc(S(N)(=O)=O)cc4)nc3c2)ccn1` [Compound 560, 4-(7-(2-methoxypyridin-4-yl)quinazolin-2-ylamino)benzenesulfonamide]: the EC50 with A2780 cells (setting [1]) is 5 to 10 µM.

On to `CNC(=O)c1cc(Oc2ccc3cnc(Nc4ccc(S(N)(=O)=O)cc4)nc3c2)ccn1` [Compound 563, N-methyl-4-(2-(4-sulfamoylphenylamino)quinazolin-7-yloxy)picolinamide], for which the EC50 with A2780 cells (setting [1]) lay in the range of 5 to 10 µM.

On to `CNC(=O)c1cccc2cnc(Nc3ccc(S(N)(=O)=O)cc3)nc12` [Compound 623, N-methyl-2-(4-sulfamoylphenylamino)quinazoline-8-carboxamide], for which, in the assay with A2780 cells (setting [1]), the EC50 is less than 5 µM.

On to `NS(=O)(=O)c1ccc(Nc2ncc3cccc(C(=O)NC4CCOCC4)c3n2)cc1` [Compound 625, 2-(4-sulfamoylphenylamino)-N-(tetrahydro-2H-pyran-4-yl)quinazoline-8-carboxamide], for which the EC50 in the assay with A2780 cells (setting [1]) is less than 5 µM.

For `CC(=O)NCCNC(=O)c1cccc2cnc(Nc3ccc(S(N)(=O)=O)cc3)nc12` [Compound 626, N-(2-acetamidoethyl)-2-(4-sulfamoylphenylamino)quinazoline-8-carboxamide], in the assay on A2780 cells (setting [1]), the EC50 lay in the range of 5 to 10 µM.

`CS(=O)(=O)CCNC(=O)c1cccc2cnc(Nc3ccc(S(N)(=O)=O)cc3)nc12` [Compound 627, N-(2-(methylsulfonyl)ethyl)-2-(4-sulfamoylphenylamino)quinazoline-8-carboxamide]: the EC50 in the assay with A2780 cells (setting [1]) is 5 to 10 µM.

Consider `NS(=O)(=O)c1ccc(Nc2ncc3cc(F)cc(-c4ccc(F)nc4)c3n2)cc1` [Compound 633, 4-(6-fluoro-8-(6-fluoropyridin-3-yl)quinazolin-2-ylamino)benzenesulfonamide], for which the EC50 with A2780 cells (setting [1]) lay within 5 to 10 µM.

On to `COc1cc(-c2ccc3cnc(Nc4ccc(S(N)(=O)=O)cc4)nc3c2)c(Cl)cn1` [Compound 696, 4-(7-(5-chloro-2-methoxypyridin-4-yl)quinazolin-2-ylamino)benzenesulfonamide], for which the EC50 in the assay on A2780 cells (setting [1]) is 5 to 10 µM.

As to `COc1cccc(COc2cccc3cnc(Nc4ccc(S(N)(=O)=O)cc4)nc23)c1` [Compound 719, 4-(8-(3-methoxybenzyloxy)quinazolin-2-ylamino)benzenesulfonamide], the EC50 in the assay on A2780 cells (setting [2]) is less than 5 µM.

In the case of `NS(=O)(=O)c1ccc(Nc2ncc3cccc(OCc4ccc5nonc5c4)c3n2)cc1` [Compound 720, 4-(8-(benzo[c][1,2,5]oxadiazol-5-ylmethoxy)quinazolin-2-ylamino)benzenesulfonamide], the EC50 in the assay on A2780 cells (setting [2]) is 5 to 10 µM.

`c1cc(OC2CCCC2)c2nc(NC3CC3)ncc2c1` [Compound 728, 8-(cyclopentyloxy)-N-cyclopropylquinazolin-2-amine]: the EC50 with A2780 cells (setting [2]) is 5 to 10 µM.

In the case of `Fc1ccc(F)c(CNc2ncc3cccc(OC4CCCC4)c3n2)c1` [Compound 729, 8-(cyclopentyloxy)-N-(2,5-difluorobenzyl)quinazolin-2-amine], the EC50 in the assay with A2780 cells (setting [2]) was 5 to 10 µM.

Consider `Oc1cccc2cnc(NCc3cc(F)ccc3F)nc12` [Compound 730, 2-(2,5-difluorobenzylamino)quinazolin-8-ol], for which the EC50 in the assay with A2780 cells (setting [2]) was less than 5 µM.

On to `NS(=O)(=O)c1ccc(Nc2ncc3ccc(-c4ccc5c(c4)OCO5)cc3n2)cc1` [Compound 791, 4-(7-(benzo[d][1,3]dioxol-5-yl)quinazolin-2-ylamino)benzenesulfonamide], for which, in the assay with A2780 cells (setting [2]), the EC50 was in the range of 5 to 10 µM.

Turning to `COc1c(-c2cnn(C)c2)cc(Cl)c2cnc(Nc3ccc(N4CCOCC4)cc3)nc12` [Compound 1035, 5-chloro-8-methoxy-7-(1-methyl-1H-pyrazol-4-yl)-N-(4-morpholinophenyl)quinazolin-2-amine], the IC50 at PDK1 kinase was less than 5 µM. Besides, the EC50 with PC-3 cells is less than 5 µM.

For the compound `COc1c(-c2cnn(C)c2)cc(Cl)c2cnc(Nc3cccc(N4CCOCC4)c3)nc12` [Compound 1036, 5-chloro-8-methoxy-7-(1-methyl-1H-pyrazol-4-yl)-N-(3-morpholinophenyl)quinazolin-2-amine], the IC50 at PDK1 kinase is less than 5 µM. In addition, the EC50 with PC-3 cells was less than 5 µM.

In the case of `COc1c(-c2cnn(C)c2)cc(Cl)c2cnc(Nc3cc(CN(C)C)cc(NC(C)=O)c3)nc12` [Compound 1037, N-(3-(5-chloro-8-methoxy-7-(1-methyl-1H-pyrazol-4-yl)quinazolin-2-ylamino)-5-((dimethylamino)methyl)phenyl)acetamide], on PDK1 kinase, the IC50 is less than 5 µM. For the same compound, the EC50 in the assay with PC-3 cells is less than 5 µM.

In the case of `COc1c(-c2cnn(C)c2)cc(Cl)c2cnc(Nc3ccc(C(=O)NC4CC4)cc3)nc12` [Compound 1038, 4-(5-chloro-8-methoxy-7-(1-methyl-1H-pyrazol-4-yl)quinazolin-2-ylamino)-N-cyclopropylbenzamide], the IC50 on PDK1 kinase was less than 5 µM. The EC50 in the assay with PC-3 cells is less than 5 µM.

On to `C#Cc1cc2cnc(Nc3ccc(C(=O)NC(C)C)cc3)nc2cc1-c1ccc2c(c1)CCNC2=O` [Compound 1039, 4-(6-ethynyl-7-(1-oxo-1,2,3,4-tetrahydroisoquinolin-6-yl)quinazolin-2-ylamino)-N-isopropylbenzamide], for which the IC50 at PDK1 kinase is less than 5 µM. Also, the EC50 in the assay on PC-3 cells was less than 5 µM.

As for `CC(C)NC(=O)c1ccc(Nc2ncc3ccc(-c4ccc5c(c4)CCNC5=O)cc3n2)cc1` [Compound 1040, N-isopropyl-4-(7-(1-oxo-1,2,3,4-tetrahydroisoquinolin-6-yl)quinazolin-2-ylamino)benzamide], on PDK1 kinase, the IC50 is less than 5 µM. Besides, the EC50 in the assay with PC-3 cells is 5 to 10 µM.

In the case of `C#Cc1cc2cnc(Nc3ccc(C(=O)N4CCOCC4)cc3)nc2cc1-c1ccc2c(c1)CCNC2=O` [Compound 1041, 6-(6-ethynyl-2-(4-(morpholine-4-carbonyl)phenylamino)quinazolin-7-yl)-3,4-dihydroisoquinolin-1(2H)-one], at PDK1 kinase, the IC50 is less than 5 µM. Further, the EC50 in the assay with PC-3 cells lay within 5 to 10 µM.
